Laboratory results published in the METLIN SMRT retention time set (Domingo-Almenara et al. 2019).

Test: gradient 5% acetonitrile 3 min, to 50% in 2 min, to 85% in 15 min, held 3 min, 100 µL/min
Details: column: Zorbax Extend-C18 2.1 x 50 mm; eluents: water / acetonitrile, 0.1% formic acid
In short: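 Pure standards were run in mixtures of ~100 molecules by HPLC coupled to a quadrupole time-of-flight mass spectrometer. The column was a Zorbax Extend-C18 (2.1 × 50 mm, 1.8 μm) at 100 μL/min, with water and acetonitrile each containing 0.1% formic acid, in positive and negative ionization mode. Dead and dwell volumes were 40 μL and 900 μL. Retention time was taken from computationally picked adduct peaks, each manually inspected, with data collected over 3 months.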

SMILES	RP-LC retention time
O=C(CSc1nnc2c3ccccc3nc(-c3ccco3)n12)NCc1nc2ccccc2[nH]1	625 s
CC(C)CCN1CCC(N2CCN(S(=O)(=O)c3ccccc3Cl)CC2)C1=O (stereo unspecified)	668 s
CSc1ccc(-c2noc(Cc3nnc(-c4ccc(F)cc4)o3)n2)cc1	1070 s
O=C(CC(c1ccccc1)c1ccccc1)Nc1cc(N2CCOCC2)ncn1	752 s
Cc1ccn2c(NC(=O)c3cccc(Br)c3)c(-c3ccccc3)nc2c1	715 s
CCCN(CC1CCOC1)C(=O)Nc1ccc(C)cc1C (stereo unspecified)	811 s
O=C(COc1ccccc1F)Nc1nnc(-c2cc(Cl)sc2Cl)o1	867 s
O=C(C1CC1)N1CCc2sc(S(=O)(=O)Nc3ccc(F)cc3Cl)cc2C1	870 s
CC(C)N1C(=O)c2cccnc2Sc2cc(NC(=O)c3ccc(Cl)cc3)ccc21	964 s
COC(=O)Nc1nc2ccc(C(=O)c3ccc(F)cc3)cc2[nH]1	864 s
CCC(=O)N1CCc2cc(N3CC(C(=O)N4CCC5(CC4)OCCO5)CC3=O)ccc21 (stereo unspecified)	654 s
Cn1c(=O)n(CC(=O)N2CCCCCC2)c(=O)c2cnc(-c3ccccc3)nc21	987 s
Cc1nn(-c2ccc(C(=O)N3CCN(C(=O)c4ccco4)CC3)cc2)c2c1C(=O)CCC2	664 s
COc1ccc(CC(=O)N2CCCC2c2cc(C(C)C)on2)cc1 (stereo unspecified)	868 s
CCCCNC(=O)C1CCCN(C(=O)c2[nH]c(C)c(C(=O)OCC)c2C)C1 (stereo unspecified)	756 s
Cc1ccc(CNC2=NCCNC23CCN(S(=O)(=O)c2ccccc2C)CC3)cc1	738 s
O=C(N1CCc2ccccc2C1)C1(c2ccc(F)cc2)CC1	905 s
Cc1ccc(C)c(N2CCN(c3ccnc(SCC(=O)NCc4ccccc4)n3)CC2)c1	858 s
O=C(NCc1ccc2c(c1)OCO2)C1CCN(c2nc3ccccc3o2)CC1	754 s
O=c1c2c(CO)c(-c3ccccc3)nn2ccn1Cc1cccc(C(F)(F)F)c1	996 s
COc1ccc(CC(=O)NCC(=O)Nc2nc3ccccc3[nH]2)c(Cl)c1	653 s

SMILES	RP-LC retention time
CC(C)N1CCN(S(=O)(=O)c2cc(-c3nnc(C4CCCC4)o3)co2)CC1	641 s
Cc1cc(Cl)ccc1NC(=O)C1CCN(S(C)(=O)=O)c2ccccc2O1 (stereo unspecified)	882 s
CCCn1cc(C(=O)Nc2ccc(OC)c(Cl)c2)c(=O)c2ccc(C)nc21	1210 s
CCc1ccccc1NC(=O)C1CCN(S(=O)(=O)c2ccc3c(c2)NC(=O)C(C)O3)CC1 (stereo unspecified)	838 s
CCCCNC(=O)C1CC(=O)N(CCc2c[nH]c3ccc(Cl)cc23)C1 (stereo unspecified)	761 s
O=C(c1ccco1)N1CCC(n2c(-c3ccoc3)nc3cccnc32)C1 (stereo unspecified)	650 s
Cc1ccc(-c2ncc3c(=O)n(CC(=O)NC4CCCCCC4)c(=O)n(C)c3n2)cc1	1080 s
Cc1nc2ccn(Cc3ccco3)c(=O)c2cc1C(=O)NCc1ccc2c(c1)OCO2	722 s
CCC(C(=O)Nc1ccc2c(c1)OCO2)n1cnc2nc3c(cc2c1=O)CCCC3 (stereo unspecified)	773 s
Cc1nnc(NC(=O)C2CCN(C(=O)NC3CC3)CC2)s1	582 s
Cc1ccc(-c2ccc(N3CCCC(C(=O)NCC4CCCO4)C3)nn2)cc1C (stereo unspecified)	663 s
COc1ccc(-c2noc(C3(NC(=O)c4ccc(F)c(Cl)c4)CCCCC3)n2)cc1	685 s
CC(C)CCNC(=O)N1CC(c2nc(-c3ccccc3)no2)C2(CCOCC2)C1 (stereo unspecified)	914 s
CCN1C(=O)c2ccccc2S(=O)(=O)c2ccc(C(=O)N3CCN(c4ccccn4)CC3)cc21	615 s
COc1ccccc1NC(=O)Cn1cccc(-c2nc(-c3ccc(Br)cc3)no2)c1=O	1000 s
O=C(CCCS(=O)(=O)c1ccc(Cl)cc1)Nc1ccc([N+](=O)[O-])cc1	695 s
CCc1nc(-c2cc(S(=O)(=O)Nc3ccccc3Br)c(C)s2)cs1	1130 s
CCN(CC)S(=O)(=O)N1CCC(C(=O)NCCN2CCOCC2)CC1	579 s
CCc1cc(C(=O)Nc2ccc(C#N)cc2)nc2ccnn12	965 s
CCCNC(=O)C1CCN(c2ccc(SCC(=O)Nc3ccc(F)cc3F)nn2)CC1	670 s

Results, then the molecule that gave them:

RP-LC retention time	SMILES
588 s	Cc1cc(OCC(O)CNCc2ccco2)ccc1Cl (stereo unspecified)
733 s	COc1ccc(CC(=O)NC(C(=O)Nc2nc3ccccc3[nH]2)C(C)C)cc1Cl (stereo unspecified)
587 s	COc1ccc(N2CC(NC(=O)NN3CCOCC3)CC2=O)cc1 (stereo unspecified)
752 s	O=c1c2c(CO)c(-c3ccccc3)nn2ccn1CCOc1ccccc1
634 s	CCN1CCN(c2c(S(=O)(=O)c3ccc(Cl)cc3)cnc3cc(OC)c(OC)cc23)CC1
766 s	COCCNc1c(-c2ccc(C)cc2)nc2sc(C(=O)NC3CC3)c(C)n12
610 s	Cc1cccc(-c2noc(C3CCCN3C(=O)CNC(=O)c3cccs3)n2)c1 (stereo unspecified)
616 s	CCN1CCC(N(Cc2ccc3c(c2)OCO3)C(=O)Nc2ccc(OC)c(OC)c2)CC1
803 s	CCCN1C(=O)c2cc(C(=O)N3CCCCCC3)nn2CC1(C)C(=O)NC1CCCC1 (stereo unspecified)
1010 s	COc1cccc(N2C(=O)C3N=NN(Cc4nc(-c5ccc(Cl)cc5)no4)C3C2=O)c1 (stereo unspecified)
796 s	Cc1ccc(NC(=O)C2CCN(C(=O)c3ncn4c3COC(c3ccccc3)C4)CC2)cc1C (stereo unspecified)
958 s	O=C(CCC1CCN(S(=O)(=O)c2ccccc2)CC1)NC1CCCCCC1
1070 s	Cc1ccc(-c2csc(-c3cccn3CC(=O)N3CCCC3)n2)cc1
893 s	O=C(COCc1nnc(C(=O)Nc2cccc(F)c2)s1)NCCc1c[nH]c2ccccc12
1050 s	CCc1ccccc1NS(=O)(=O)c1ccc2c(c1)C(=O)N(CC)c1ncccc1O2
670 s	CCc1cc(C(=O)NCCN2CCOCC2)nc2cc(-c3cccs3)nn12
667 s	CCOc1ccc(-c2c(C)nn3c(C)c(C(=O)NCC4CCCN4CC)cnc23)cc1OCC (stereo unspecified)
561 s	CCNC(=O)Nc1ccc(N2CCCCC2)nc1
1060 s	O=C(c1ccco1)N1CCN(S(=O)(=O)c2cccc(-c3nc(-c4ccccc4)no3)c2)CC1
962 s	Cc1ccc(CNC(=O)C2(C)CN(S(=O)(=O)c3ccccc3)CC(=O)N2c2cccc(F)c2)cc1 (stereo unspecified)
724 s	COCCOc1ccc2c(n1)CCN(C(=O)NC1CCCC1)C2
794 s	FC1(F)CN[C@H](c2nc(-c3ccccc3)no2)C1
979 s	O=C(CCc1nc(-c2ccc(N3CCCC3)cc2)no1)NCc1ccc2c(c1)OCO2
722 s	Cc1noc(C)c1C1CCCN1C(=O)c1ccc2c(c1)OCO2 (stereo unspecified)
642 s	COc1ccc(OC)c(NC(=O)CN2CCc3[nH]c4c(C)c(C)ccc4c(=O)c3C2)c1
